Laboratory results taken from patent US11180474B2 (BRISTOL-MYERS SQUIBB COMPANY, priority 2016, dated 2021).
Counter-ions that a name gives are not always drawn.

Key:
[1] = molecular target: T1, human TLR7 (Homo sapiens, UniProt Q9NYK1); experiment: TLR7 inhibition reporter assay (HEK-Blue cells, SEAP reporter, gardiquimod stimulation); assay type: cell-based; conditions: HEK-Blue cells overexpressing human TLR7, gardiquimod 7.5 μM
T1 construct: host or cells: HEK-Blue cells
T1 sequence (Q9NYK1 27-1049): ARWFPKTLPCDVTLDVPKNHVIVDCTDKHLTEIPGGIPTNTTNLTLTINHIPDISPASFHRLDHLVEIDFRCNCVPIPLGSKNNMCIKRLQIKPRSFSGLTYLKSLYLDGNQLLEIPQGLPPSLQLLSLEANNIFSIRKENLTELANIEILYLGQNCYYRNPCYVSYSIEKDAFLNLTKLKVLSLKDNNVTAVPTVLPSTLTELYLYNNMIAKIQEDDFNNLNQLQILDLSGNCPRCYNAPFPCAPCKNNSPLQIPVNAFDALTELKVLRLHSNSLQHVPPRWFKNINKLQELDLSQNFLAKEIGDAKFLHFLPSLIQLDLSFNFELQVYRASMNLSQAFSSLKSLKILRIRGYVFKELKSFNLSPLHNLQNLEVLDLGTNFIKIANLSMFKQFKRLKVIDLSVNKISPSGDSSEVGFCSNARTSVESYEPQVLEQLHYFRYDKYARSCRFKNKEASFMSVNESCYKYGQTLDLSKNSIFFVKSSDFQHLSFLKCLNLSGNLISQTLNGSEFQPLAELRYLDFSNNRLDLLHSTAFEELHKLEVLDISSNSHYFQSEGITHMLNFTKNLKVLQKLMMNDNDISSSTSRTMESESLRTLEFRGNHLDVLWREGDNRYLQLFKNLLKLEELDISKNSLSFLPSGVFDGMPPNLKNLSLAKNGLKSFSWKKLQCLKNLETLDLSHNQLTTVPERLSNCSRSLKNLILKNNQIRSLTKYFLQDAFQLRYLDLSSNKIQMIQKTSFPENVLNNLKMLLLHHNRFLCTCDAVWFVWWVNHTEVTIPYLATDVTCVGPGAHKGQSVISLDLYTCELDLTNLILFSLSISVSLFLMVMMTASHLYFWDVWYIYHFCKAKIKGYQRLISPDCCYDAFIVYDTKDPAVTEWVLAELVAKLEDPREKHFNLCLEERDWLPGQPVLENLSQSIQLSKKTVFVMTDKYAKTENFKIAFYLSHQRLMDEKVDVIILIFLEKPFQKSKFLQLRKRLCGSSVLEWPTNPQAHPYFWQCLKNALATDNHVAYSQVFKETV
How it was run: (§1)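 Dose-response testing from 0.05 nM to 50 μM final was done on reporter cells for 22 hours at 37° C. Secreted SEAP was then detected, and inhibition was calculated as percent reduction of the agonist-plus-DMSO signal compared with wells given a known inhibitor.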

[2] = molecular target: T2, human TLR8 (Homo sapiens, UniProt Q9NR97); experiment: TLR8 inhibition reporter assay (HEK-Blue cells, SEAP reporter, R848 stimulation); assay type: cell-based; conditions: HEK-Blue cells overexpressing human TLR8, R848 15.9 μM
T2 construct: host or cells: HEK-Blue cells
T2 sequence (Q9NR97 27-1041): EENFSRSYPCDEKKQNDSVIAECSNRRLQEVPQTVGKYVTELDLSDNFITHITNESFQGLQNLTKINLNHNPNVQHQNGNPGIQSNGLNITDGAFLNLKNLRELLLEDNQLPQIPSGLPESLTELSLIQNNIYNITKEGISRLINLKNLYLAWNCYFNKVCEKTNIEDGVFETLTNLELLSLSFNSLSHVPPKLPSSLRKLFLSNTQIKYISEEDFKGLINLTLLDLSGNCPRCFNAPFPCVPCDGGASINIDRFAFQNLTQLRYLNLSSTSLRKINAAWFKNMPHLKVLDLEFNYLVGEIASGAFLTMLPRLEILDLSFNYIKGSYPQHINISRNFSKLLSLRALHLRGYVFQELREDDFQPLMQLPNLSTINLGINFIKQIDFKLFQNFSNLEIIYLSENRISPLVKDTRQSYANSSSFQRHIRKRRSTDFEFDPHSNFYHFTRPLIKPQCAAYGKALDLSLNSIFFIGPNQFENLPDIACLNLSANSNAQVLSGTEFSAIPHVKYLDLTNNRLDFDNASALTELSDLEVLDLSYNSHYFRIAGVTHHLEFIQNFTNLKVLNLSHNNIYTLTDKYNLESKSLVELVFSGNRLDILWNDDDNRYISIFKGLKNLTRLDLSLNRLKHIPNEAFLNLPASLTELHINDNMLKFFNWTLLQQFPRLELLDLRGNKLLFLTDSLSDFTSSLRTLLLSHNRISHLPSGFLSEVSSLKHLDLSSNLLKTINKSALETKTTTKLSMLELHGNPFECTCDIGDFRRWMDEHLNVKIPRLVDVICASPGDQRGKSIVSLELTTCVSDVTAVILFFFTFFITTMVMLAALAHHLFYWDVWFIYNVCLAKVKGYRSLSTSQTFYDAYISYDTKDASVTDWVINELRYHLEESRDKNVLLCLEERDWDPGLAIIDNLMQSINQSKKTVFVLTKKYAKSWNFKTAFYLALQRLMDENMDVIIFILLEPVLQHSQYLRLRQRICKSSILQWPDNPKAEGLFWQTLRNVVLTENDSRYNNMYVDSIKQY
How it was run: as §1

SMILES | IC50 [1] [nM] | IC50 [2] [nM]
CCc1c(-c2ccc(OC)c(OC)c2)[nH]c2ccc(C3CCN(C(=O)C4CCCNC4)CC3)cc12 (stereo not drawn) [Example 184, (4-(2-(3,4-dimethoxyphenyl)-3-ethyl-1H-indol-5-yl)piperidin-1-yl)(piperidin-3-yl)methanone] | 191 | 136
COc1ccc(-c2[nH]c3ccc(C4CCN(C5CCN(CC6CC6)CC5)CC4)cc3c2C(C)C)cc1OC [Example 198, 5-(1′-(cyclopropylmethyl)-[1,4′-bipiperidin]-4-yl)-2-(3,4-dimethoxyphenyl)-3-isopropyl-1H-indole di trifluoroacetic acid] | 379 | 22
CCc1c(-c2ccc(OC)c(OC)c2)[nH]c2ccc(C3CCN(C4CCN(C)CC4)CC3)cc12 [Example 150, 2-(3,4-dimethoxyphenyl)-3-ethyl-5-(1′-methyl-[1,4′-bipiperidin]-4-yl)-1H-indole] | 7980 | 1360
CCc1c(-c2ccc(OC)c(OC)c2)[nH]c2ccc(C3CCN(C(C)=O)CC3)cc12 [Example 185, 1-(4-(2-(3,4-dimethoxyphenyl)-3-ethyl-1H-indol-5-yl)piperidin-1-yl)ethan-1-one] | 273 | 837
CCc1c(-c2ccc(OC)c(OC)c2)[nH]c2c(F)cc(C3CCN(C4CCN(CC(C)C)CC4)CC3)cc12 [Example 190, 2-(3,4-dimethoxyphenyl)-3-ethyl-7-fluoro-5-(1′-isobutyl-[1,4′-bipiperidin]-4-yl)-1H-indole] | 588 | 1760
CCc1c(-c2ccc(OC)c(OC)c2)[nH]c2ccc(C3CCN(C4CCN(Cc5cnc(C)[nH]5)CC4)CC3)cc12 [Example 153, 2-(3,4-dimethoxyphenyl)-3-ethyl-5-(1′-((2-methyl-1H-imidazol-5-yl)methyl)-[1,4′-bipiperidin]-4-yl)-1H-indole] | 1470 | 364
CCc1c(-c2ccc(OC)c(OC)c2)[nH]c2ccc(C3CCN(C4CCN(CC)CC4)CC3)cc12 [Example 149, 2-(3,4-dimethoxyphenyl)-3-ethyl-5-(1′-ethyl-[1,4′-bipiperidin]-4-yl)-1H-indole] | 345 | 31
CCc1c(-c2ccc(OC)c(OC)c2)[nH]c2ccc(C3CCN(CCNC)CC3)cc12 [Example 155, 2-(4-(2-(3,4-dimethoxyphenyl)-3-ethyl-1H-indol-5-yl)piperidin-1-yl)-N-methylethanamine di-trifluoroacetic acid] | 134 | 29
CCc1c(-c2ccc(OC)c(OC)c2)[nH]c2ccc(C3CCN(C(=O)CN4CC[C@@H](O)C4)CC3)cc12 [Example 173, (R)-1-(4-(2-(3,4-dimethoxyphenyl)-3-ethyl-1H-indol-5-yl)piperidin-1-yl)-2-(3-hydroxypyrrolidin-1-yl)ethan-1-one] | 43 | 25
CCc1c(-c2ccc(OC)c(OC)c2)[nH]c2ccc(C3CCN(C(=O)C4CCNCC4)CC3)cc12 [Example 186, (4-(2-(3,4-dimethoxyphenyl)-3-ethyl-1H-indol-5-yl)piperidin-1-yl)(piperidin-4-yl) methanone] | 96 | 132
COc1ccc(-c2[nH]c3cc(C)c(C4CCN(C5CCN(C(C)C)CC5)CC4)cc3c2C(C)C)cc1OC [Example 206, 2-(3,4-dimethoxyphenyl)-3-isopropyl-5-(1′-isopropyl-[1,4′-bipiperidin]-4-yl)-6-methyl-1H-indole di trifluoroacetic acid] | 3570 | 14500
COc1ccc(-c2[nH]c3ccc(C4CCN(C5CCN(Cc6ccccc6)CC5)CC4)cc3c2C)cc1OC [Example 9, 5-(1′-benzyl-[1,4′-bipiperidin]-4-yl)-2-(3,4-dimethoxyphenyl)-3-methyl-1H-indole] | 1550 | 457
COc1ccc(-c2[nH]c3ccc(C4CCN(C5CCN(C(C)C)CC5)CC4)cc3c2C(C)C)cc1OC [Example 201, 2-(3,4-dimethoxyphenyl)-3-isopropyl-5-(1′-isopropyl-[1,4′-bipiperidin]-4-yl)-1H-indole] | 119 | 17
CCN(CC)C(=O)CN(C)CC(=O)N1CCC(c2ccc3[nH]c(-c4ccc(OC)c(OC)c4)c(C(C)C)c3c2)CC1 [Example 203, 2-((2-(4-(2-(3,4-dimethoxyphenyl)-3-isopropyl-1H-indol-5-yl)piperidin-1-yl)-2-oxoethyl)(methyl)amino)-N,N-diethylacetamide, TFA] | 128 | 286
CNCCN1CCC(c2ccc3c(c2)c(C)c(-c2ccc(OC)c(OC)c2)n3C)CC1 [Example 114, 2-(4-(2-(3,4-dimethoxyphenyl)-1,3-dimethyl-1H-indol-5-yl)piperidin-1-yl)-N-methylethan-1-amine] | 5260 | 958
CCc1c(-c2ccc(OC)c(OC)c2)[nH]c2ccc(C3CCN(C4CCN(Cc5ccc(-c6ccccc6)o5)CC4)CC3)cc12 [Example 143, 2-(3,4-dimethoxyphenyl)-3-ethyl-5-(1′-((5-phenylfuran-2-yl)methyl)-[1,4′-bipiperidin]-4-yl)-1H-indole] | 1260 | 706
COc1ccc(-c2[nH]c3ccc(C4CCN(C5CCN(CC(C)C)CC5)CC4)cc3c2C)cc1OC [Example 6, 2-(3,4-dimethoxyphenyl)-5-(1′-isobutyl-[1,4′-bipiperidin]-4-yl)-3-methyl-1H-indole] | 1230 | 247
COc1ccc(-c2[nH]c3ccc(C4CCN(C5CCN(CC(C)C)CC5)CC4)cc3c2C(C)C)cc1OC [Example 199, 2-(3,4-dimethoxyphenyl)-5-(1′-isobutyl-[1,4′-bipiperidin]-4-yl)-3-isopropyl-1H-indole] | 120 | 19
CCc1c(-c2ccc(OC)c(OC)c2)[nH]c2ccc(C3CCN(C4CCN(Cc5cnc(C)o5)CC4)CC3)cc12 [Example 124, 5-((4-(2-(3,4-dimethoxyphenyl)-3-ethyl-1H-indol-5-yl)-[1,4′-bipiperidin]-1′-yl)methyl)-2-methyloxazole] | 1870 | 248
COc1ccc(-c2[nH]c3ccc(C4CCN(C(=O)CN(C)C)CC4)cc3c2C(C)C)cc1OC [Example 209, 1-(4-(2-(3,4-dimethoxyphenyl)-3-isopropyl-1H-indol-5-yl)piperidin-1-yl)-2-(dimethylamino)ethan-1-one] | 12 | 24
CCc1c(-c2ccc(OC)c(OC)c2)[nH]c2ccc(C3CCN(C4CCN(Cc5ccsc5)CC4)CC3)cc12 [Example 142, 2-(3,4-dimethoxyphenyl)-3-ethyl-5-(1′-(thiophen-3-ylmethyl)-[1,4′-bipiperidin]-4-yl)-1H-indole] | 898 | 101
